# Non-standard residues stand in square brackets, D forms with d. Residues, ends and D or L forms follow the SMILES beside them. *: point of attachment. Dolaproine = CO[C@@H]([C@@H]1CCCN1)[C@@H](C)C(=O)O; Dil = CC[C@H](C)[C@H](NC)[C@@H](CC(=O)O)OC; X1 = C[C@@H](N*)[C@@H](O)c1ccccc1; NMeV = CN[C@H](C(=O)O)C(C)C
# Columns and labels:
# Assay in all cases: In vitro cytotoxicity evaluation (cell proliferation inhibition, SRB dye)
# Format in all cases: cell-based, human
# JIMT-1 (HER2 positive) = conditions: JIMT-1 cells, SRB viable cell count; no 144 h footnote (168-hour treatment group)
# Method: (§1) The cell proliferation inhibitory activity of the drug and ADCs listed in Table 2 below on cancer cell lines was measured. As the cancer cell lines, commercially available human breast cancer cell lines MCF-7 (HER2 negative to normal), SK-BR3 (HER2 positive), and JIMT-1 (HER2 positive) were used. MMAE was used as the drug, and the ADCs in Table 1 were used as the ADC. Each cancer cell line was seeded in a 96-well plate at 2,500 to 5,000 cells per well for 144-hour treatment group and 1,500 to 3,000 cells per well for 168-hour treatment group, cultured for 24 hours, and then treated with the ADCs and drug at concentrations of 0.00015 to 10.0 nM (4-fold serial dilution) or 0.0015 to 10 nM (3-fold serial dilution). After 144/168 hours, the number of viable cells was quantified using SRB (sulforhodamine B) dye.
# [1] = test system: MCF-7 (HER2 negative to normal); conditions: MCF7 cells, SRB viable cell count; no 144 h footnote (168-hour treatment group)
# Method: as §1
# SK-BR3 (HER2 positive) = conditions: SK-BR3 cells, SRB viable cell count; no 144 h footnote (168-hour treatment group)
# Method: as §1
smiles,measurement,setting,value
"CC[C@H](C)[C@@H]([C@@H](CC(=O)N1CCC[C@H]1[C@H](OC)[C@@H](C)C(=O)N[C@H](C)[C@@H](O)c1ccccc1)OC)N(C)C(=O)[C@@H](NC(=O)[C@@H](NC)C(C)C)C(C)C [MMAE, monomethyl auristatin E] (H-[NMeV]V[Dil][Dolaproine]-X1)",CC50,JIMT-1 (HER2 positive),0.09 nM
same,CC50,[1],0.31 nM
same,CC50,SK-BR3 (HER2 positive),0.12 nM

# Reference: patent publication US20220226496A1, “LIGAND-DRUG CONJUGATE INCLUDING LINKER HAVING TRIS STRUCTURE” (LEGOCHEM BIOSCIENCES, INC., priority 2019, published 2022)
